Test results from ChEMBL document CHEMBL3098065, “Discovery of Pyridyl Bis(oxy)dibenzimidamide Derivatives as Selective Matriptase Inhibitors” (ACS Med Chem Lett, 2013).
pKi: −log10 of the molar value. Values after ≈ are worked out from the molar mass of the structure shown.

Legend:
[1] = target: Trypsin (Homo sapiens, UniProt P07477+P07478+P35030); experiment: Inhibition of trypsin (unknown origin) by fluorescence assay; format: protein assay
[2] = target: Prothrombin (Homo sapiens, UniProt P00734); experiment: Inhibition of thrombin (unknown origin) by fluorescence assay
[3] = target: T1, Suppressor of tumorigenicity 14 protein (Homo sapiens, UniProt Q9Y5Y6); experiment: Inhibition of matriptase-SP1 (615 to 855) (unknown origin) expressed in Escherichia coli BL21(DE3) using Boc-Gln-Ala-Arg-7-amido-4-methyl coumarin hydrobromide as substrate by fluorescence assay
T1 sequence (Q9Y5Y6 whole entry): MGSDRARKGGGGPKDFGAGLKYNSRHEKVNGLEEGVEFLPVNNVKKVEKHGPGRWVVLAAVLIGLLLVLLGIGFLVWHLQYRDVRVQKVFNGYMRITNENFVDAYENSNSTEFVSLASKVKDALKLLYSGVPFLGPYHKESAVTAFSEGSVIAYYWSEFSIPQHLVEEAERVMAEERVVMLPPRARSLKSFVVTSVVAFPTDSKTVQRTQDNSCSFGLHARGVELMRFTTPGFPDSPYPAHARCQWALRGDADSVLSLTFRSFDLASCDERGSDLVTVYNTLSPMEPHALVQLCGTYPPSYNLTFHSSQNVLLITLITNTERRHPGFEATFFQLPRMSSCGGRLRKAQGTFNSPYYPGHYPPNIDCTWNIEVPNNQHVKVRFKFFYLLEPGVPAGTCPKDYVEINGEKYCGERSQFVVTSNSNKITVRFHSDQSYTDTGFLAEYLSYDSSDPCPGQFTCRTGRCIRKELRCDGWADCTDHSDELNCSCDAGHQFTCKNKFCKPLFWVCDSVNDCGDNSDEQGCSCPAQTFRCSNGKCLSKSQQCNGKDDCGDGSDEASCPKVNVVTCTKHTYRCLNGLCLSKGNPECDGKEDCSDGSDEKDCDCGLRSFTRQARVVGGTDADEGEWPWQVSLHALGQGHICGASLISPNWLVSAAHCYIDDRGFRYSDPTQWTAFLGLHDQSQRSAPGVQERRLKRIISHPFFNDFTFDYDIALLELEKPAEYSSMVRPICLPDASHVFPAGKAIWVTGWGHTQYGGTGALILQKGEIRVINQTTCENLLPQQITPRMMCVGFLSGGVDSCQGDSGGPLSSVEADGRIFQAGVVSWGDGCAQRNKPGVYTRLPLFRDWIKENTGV

[4] = target: Coagulation factor X (Homo sapiens, UniProt P00742); experiment: Inhibition of factor 10a (unknown origin) using CH3OCO-D-CHA-Gly-Arg-pNA.AcoH as substrate
Coagulation factor X, sequence (P00742 41-179 limits assumed): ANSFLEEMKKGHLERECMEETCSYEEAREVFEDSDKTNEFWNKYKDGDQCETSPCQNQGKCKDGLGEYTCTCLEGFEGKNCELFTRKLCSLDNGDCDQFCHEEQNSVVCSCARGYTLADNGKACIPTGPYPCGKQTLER
Coagulation factor X, sequence (P00742 235-488 limits assumed): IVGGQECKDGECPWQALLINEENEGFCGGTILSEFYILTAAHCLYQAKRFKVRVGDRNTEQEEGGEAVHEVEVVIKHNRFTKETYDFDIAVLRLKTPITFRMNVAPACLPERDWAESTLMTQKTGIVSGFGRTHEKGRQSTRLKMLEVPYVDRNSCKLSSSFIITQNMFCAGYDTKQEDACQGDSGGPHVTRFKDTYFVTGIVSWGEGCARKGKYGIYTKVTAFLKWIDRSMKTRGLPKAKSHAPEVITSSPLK

[5] = target: Urokinase-type plasminogen activator (Homo sapiens, UniProt P00749); experiment: Inhibition of uPA (unknown origin) using L-PyroGlu-Gly-Arg-pNA.HCl as substrate
[6] = Metabolic stability in mouse liver microsomes assessed as compound remaining at 1 uM after 20 mins by LC-MS/MS analysis; format: ADME, Microsome; conditions: read-out: Stability
[7] = Metabolic stability in mouse liver microsomes assessed as compound remaining at 1 uM after 40 mins by LC-MS/MS analysis; format: ADME, Microsome; conditions: read-out: Stability
[8] = system: DU-145; experiment: Antiinvasive activity against human DU145 cells at 10 uM incubated overnight followed by fibronectin addition measured after 48 hrs by calcein AM assay relative to control; format: functional; conditions: DU-145, 48 h
[9] = system: PC-3; experiment: Cytotoxicity against human PC3 cells at 10 uM after 72 hrs by calcein AM assay relative to control; format: functional
[10] = system: PC-3; experiment: Antimigratory activity against human PC3 cells at 10 uM incubated overnight followed by fibronectin and HGF addition measured after 24 hrs by calcein AM assay relative to control; format: functional; conditions: PC-3, 24 h
[11] = system: DU-145; experiment: Cytotoxicity against human DU145 cells at 10 uM after 72 hrs by calcein AM assay relative to control; format: functional
[12] = system: PC-3; experiment: Antiinvasive activity against human PC3 cells at 10 uM incubated overnight followed by fibronectin and HGF addition measured after 48 hrs by calcein AM assay relative to control; format: functional; conditions: PC-3, 48 h
[13] = system: DU-145; experiment: Antimigratory activity against human DU145 cells at 10 uM incubated overnight followed by fibronectin addition measured after 24 hrs by calcein AM assay relative to control; format: functional; conditions: DU-145, 24 h
[14] = Kinetic aqueous solubility of the compound at pH 7.4 after 16 hrs by shake flask method; format: physicochemical; conditions: read-out: Kinetic_solubility

| Compound | Ki [1] | pKi [2] | pKi [3] | pKi [4] | pKi [5] | remaining at 20 min, 1 µM [6] | remaining at 40 min, 1 µM [7] | inhibition at 10 µM [8] | Activity [9] | inhibition at 10 µM [10] | Activity [11] | inhibition at 10 µM [12] | inhibition at 10 µM [13] | solubility kinetic at 16 h [14] |
| --- | --- | --- | --- | --- | --- | --- | --- | --- | --- | --- | --- | --- | --- | --- |
| N=C(N)c1ccc(Oc2cccc(Oc3ccc(C(=N)N)cc3)n2)cc1 | 2.8 µM | 6.22 | 5.02 | – | – | – | – | – | – | – | – | – | – | – |
| N=C(N)c1ccc(Oc2ccc(C(=O)NCCCN)c(Oc3ccc(C(=N)N)cc3)n2)cc1 | 0.3 µM | 5.68 | 6.40 | 6.52 | < 5.00 | – | – | – | – | – | – | – | – | – |
| N=C(N)c1ccc(Oc2ccc(C(=O)N3CCC(CCN)CC3)c(Oc3ccc(C(=N)N)cc3)n2)cc1 | 3.6 µM | < 5.60 | 6.70 | 5.82 | < 5.00 | – | – | – | – | – | – | – | – | – |
| N=C(N)c1ccc(Oc2cc(C(=O)N3CCC(CCN)CC3)cc(Oc3ccc(C(=N)N)cc3)n2)cc1 | 2.2 µM | < 5.60 | 7.00 | 6.70 | < 5.00 | – | – | – | – | – | – | – | – | – |
| N=C(N)c1ccc(Oc2cc(C(=O)NC3CCN(CCCN)CC3)cc(Oc3ccc(C(=N)N)cc3)n2)cc1 | – | 5.54 | 7.40 | 7.00 | < 5.00 | – | – | – | – | – | – | – | – | – |
| N=C(N)c1ccc(Oc2cc(C(=O)N[C@H]3CC[C@H](N)CC3)cc(Oc3ccc(C(=N)N)cc3)n2)cc1 | 2.4 µM | 5.60 | 7.40 | 6.40 | < 5.00 | 100% | 95.6% | 69% | 1% | 53% | 0% | 42% | 65% | 196 µM (≈ 95.6 µg/mL) |
| N=C(N)c1ccc(Oc2ccc(N)c(Oc3ccc(C(=N)N)cc3)n2)cc1 | 5.5 µM | 5.36 | 5.54 | 5.92 | < 5.00 | – | – | – | – | – | – | – | – | – |
| N=C(N)c1ccc(Oc2ccc(NS(=O)(=O)c3ccc(F)cc3)c(Oc3ccc(C(=N)N)cc3)n2)cc1 | 1.4 µM | 5.39 | 6.70 | 6.52 | < 5.00 | 89% | 86.5% | 61% | 0% | 65% | 0% | 60% | 69% | 194 µM (≈ 101 µg/mL) |
| N=C(N)c1ccc(Oc2ccc(NS(=O)(=O)c3cc(F)cc(F)c3)c(Oc3ccc(C(=N)N)cc3)n2)cc1 | – | – | 5.92 | – | < 5.00 | – | – | – | – | – | – | – | – | – |
| N=C(N)c1ccc(Oc2ccc(NS(=O)(=O)c3ccc4ccccc4c3)c(Oc3ccc(C(=N)N)cc3)n2)cc1 | 1.3 µM | 5.24 | 7.40 | 6.52 | < 5.00 | 76.4% | 73.2% | 47% | 20% | 39% | 20% | 42% | 59% | 191 µM (≈ 106 µg/mL) |
| N=C(N)c1ccc(Oc2ccc(NS(=O)(=O)c3cccc4cccnc34)c(Oc3ccc(C(=N)N)cc3)n2)cc1 | – | – | 6.70 | – | < 5.00 | – | – | – | – | – | – | – | – | – |
| N=C(N)c1ccc(Oc2ccc(C(=O)N[C@H]3CC[C@H](N)CC3)c(Oc3ccc(C(=N)N)cc3)n2)cc1 | 2 µM | 5.47 | 6.30 | 6.22 | < 5.00 | – | – | – | – | – | – | – | – | – |
| N=C(N)c1ccc(Oc2ccc(C(=O)NC3CCN(C(=O)CCN)CC3)c(Oc3ccc(C(=N)N)cc3)n2)cc1 | – | 5.44 | 6.22 | 5.64 | < 5.00 | – | – | – | – | – | – | – | – | – |
| N=C(N)c1ccccc1 [BENZAMIDINE] | – | – | 3.40 | – | – | – | – | – | – | – | – | – | – | – |
